# ± gives the standard deviation of the averaged measurements.
# Columns and labels:
# Test in all cases: level (log10 ratio to DMSO vehicle control); higher = higher biomarker level / cell amount than vehicle control
# Settings in all cases: in DMSO
# [1] = compound: OCC(F)(F)C(F)(F)C(F)(F)C(F)(F)C(F)(F)C(F)F [1H,1H,7H-Dodecafluoro-1-heptanol]
# Description: (§1)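 BioMAP Diversity Plus panel of 12 human primary cell co-culture systems (3C, 4H, LPS, SAg, BT, BF4T, BE3C, CASM3C, HDF3CGF, KF3CT, MyoF, Mphg). Compounds were added 1 h before stimulation and left for 24 h (MyoF 48 h; BT 72 h for soluble read-outs or 6 d for IgG). Biomarkers were read by ELISA, cytotoxicity by SRB, PBMC viability and proliferation by Alamar Blue. Each well value was divided by the mean of 8 DMSO control wells on the same plate and log10 transformed; duplicate blinded samples were tested at 4 concentrations.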
# [2] = compound: O=C(O)CCC(F)(F)C(F)(F)C(F)(F)F [3:3 Fluorotelomer carboxylic acid]
# Description: as §1
# [3] = compound: FC(F)(F)C(F)(F)C(F)(F)C(F)(F)C(F)(F)C(F)(F)C(F)(F)CCI [1-Iodo-1H,1H,2H,2H-perfluorononane]
# Description: as §1
Test System,level (log10) ([1]; 6700 nM),level (log10) ([1]; 20000 nM),level (log10) ([1]; 60000 nM),level (log10) ([2]; 6700 nM),level (log10) ([2]; 20000 nM),level (log10) ([2]; 60000 nM),level (log10) ([3]; 6700 nM),level (log10) ([3]; 20000 nM)
CASM3C:Proliferation,0.004 ± 0.0042,-0.006 ± 0.025,-0.018 ± 0.013,-0.01 ± 0.011,0.005 ± 0.0042,0.0005 ± 0.022,-0.001,0.0105 ± 0.04
MyoF:PAI-I,-0.0045 ± 0.013,-0.0015 ± 0.011,0.007 ± 0.0057,-0.0055 ± 0.005,-0.003,0.003 ± 0.0042,-0.002 ± 0.02,-0.0025 ± 0.0035
KF3CT:CD54/ICAM-1,-0.002 ± 0.016,-0.0115 ± 0.0064,0.003 ± 0.017,-0.0055 ± 0.0092,-0.008 ± 0.0014,0.001 ± 0.028,-0.0045 ± 0.0092,-0.0175 ± 0.025
lMphg:CXCL8/IL-8,-0.003 ± 0.013,0.017 ± 0.025,0.042 ± 0.028,-0.0215 ± 0.059,-0.001 ± 0.051,0.025 ± 0.02,0.007 ± 0.013,0.0695 ± 0.0078
HDF3CGF:Collagen I,-0.0095 ± 0.011,-0.019 ± 0.027,0.0025 ± 0.08,-0.029 ± 0.0042,-0.006 ± 0.035,0.0325 ± 0.07,0.0105 ± 0.042,-0.011 ± 0.058
BE3C:MMP-1,0.0045 ± 0.022,0 ± 0.025,0.029 ± 0.0057,-0.006 ± 0.037,-0.0235 ± 0.011,0.0125 ± 0.044,0.011 ± 0.0071,0.059 ± 0.031
HDF3CGF:CD106/VCAM-1,0.014 ± 0.0014,0.011 ± 0.0085,-0.0045 ± 0.00071,-0.0055 ± 0.00071,0.02 ± 0.014,-0.009 ± 0.0085,-0.0925 ± 0.013,-0.115 ± 0.018
HDF3CGF:EGFR,-0.004 ± 0.025,-0.015 ± 0.03,0.0075 ± 0.011,-0.023 ± 0.018,-0.012 ± 0.024,-0.003 ± 0.045,0.016,0.0295 ± 0.023
HDF3CGF:CXCL9/MIG,0.0015 ± 0.013,-0.022 ± 0.038,0.011 ± 0.011,-0.0115 ± 0.018,-0.005 ± 0.0057,0.0295 ± 0.025,-0.035 ± 0.0071,-0.0875 ± 0.049

# Source: the supplement of paper PMC10331698
